Read-outs that look alike come from different tables or passages of the source.
Columns and labels:
HepG2 cells [1] = assay: Cytotoxicity over the MTT, NRU, TPC and LDH assays, HepG2; assay type: cell-based, human; conditions: HepG2, up to 1 μM, Figure S5
Description: (§1) The human hepatoma cell line (HepG2) was purchased from the American Type Culture Collection (ATCC HB-8065). These cells were cultured in Minimum Essential Medium Eagle (MEME) (ATCC). The murine fibroblast cell line (Balb/c 3T3 clone A31) was purchased from the American Type Culture Collection (ATCC CCL-163), and the cells were cultured in Dulbecco’s Modified Eagle’s Medium (DMEM) (ATCC). The media were supplemented with 10% BCS (Balb/c 3T3), 10% FBS (HepG2), 1% L-glutamine, and 1% antibiotic solution. The cells were maintained in 75-cm^2 cell culture flasks (NUNC, Roskilde, Denmark) in a humidified incubator, NuAire (Plymouth, MN, USA) at 37 °C and 5% CO2. […]
(§2) As a control, cultured cells were grown in the absence of the studied compounds. […] Cytotoxicity was assessed after 72 h of cell exposure to the compounds in darkness. […]
(§3) MTT assay. The metabolic activity of living cells was assessed by the measurement of the activity of dehydrogenases. […] The plate was shaken for 15 min at room temperature and transferred to a microplate reader (Synergy HTX multi-mode reader (BioTek® Instruments Inc., Winooski, VT, USA)) to measure the absorbance at 570 nm, using a blank as a reference. Cytotoxicity was expressed as a percentage of the negative control (0.1% DMSO).
(§4) NRU assay. […] Cytotoxicity was expressed as a percentage of the negative control (0.1% DMSO). […]

Balb/c 3T3 fibroblasts [2] = assay: Cytotoxicity over the MTT, NRU, TPC and LDH assays, Balb/c 3T3; assay type: cell-based, murine; conditions: Balb/c 3T3, up to 1 μM, Figure S5
Description: as §1, §2, §3, §4

[3] = cited from earlier work
[4] = tested on: human cancer cells (breast, bladder, colorectal cancer cell lines, acute myelogenous leukemia, osteosarcoma cells); set-up: method as in PMID 26286663; conditions: cited from earlier work
HepG2 cells [5] = assay: MTT assay (mitochondrial activity), HepG2; assay type: cell-based, human
Description: (§5) The human hepatoma cell line (HepG2) was purchased from the American Type Culture Collection (ATCC HB-8065). These cells were cultured in Minimum Essential Medium Eagle (MEME) (ATCC). The murine fibroblast cell line (Balb/c 3T3 clone A31) was purchased from the American Type Culture Collection (ATCC CCL-163), and the cells were cultured in Dulbecco’s Modified Eagle’s Medium (DMEM) (ATCC). The media were supplemented with 10% BCS (Balb/c 3T3), 10% FBS (HepG2), 1% L-glutamine, and 1% antibiotic solution. The cells were maintained in 75-cm^2 cell culture flasks (NUNC, Roskilde, Denmark) in a humidified incubator, NuAire (Plymouth, MN, USA) at 37 °C and 5% CO2. The medium was refreshed every two days and the cells were trypsinized by 0.25% trypsin–0.02% EDTA after reaching 70–80% confluence. Then, cell suspensions at a density of 2 × 10^5 cells/mL (HepG2) and 5 × 10^4 cells/mL (Balb/c 3T3) were transferred to 96-well plates (100 μL/well) and incubated for 24 h before the exposure to the studied compounds.
(§6) As a control, cultured cells were grown in the absence of the studied compounds. Each concentration was tested in six replicates in three independent experiments. Cytotoxicity was assessed after 72 h of cell exposure to the compounds in darkness. The medium was not changed during the incubation time.
(§7) MTT assay. The metabolic activity of living cells was assessed by the measurement of the activity of dehydrogenases. After incubation of the cells with the study compound, 10 μL of the MTT solution (5 mg/mL in phosphate buffered saline (PBS)) was added to each well of the 96-well plate and incubated. After 3 h, the MTT solution was removed, and intracellular formazan crystals were dissolved in 100 μL DMSO. The plate was shaken for 15 min at room temperature and transferred to a microplate reader (Synergy HTX multi-mode reader (BioTek® Instruments Inc., Winooski, VT, USA)) to measure the absorbance at 570 nm, using a blank as a reference. Cytotoxicity was expressed as a percentage of the negative control (0.1% DMSO).
(§8) The study was performed in three independent experiments. […] Assessment of the cytotoxicity data used a one-way analysis of variance (ANOVA) followed by Dunnett’s post-hoc test, which was applied to determine significance relative to the negative control. The cytotoxicity concentration (IC20 and IC50) necessary for 20% and 50% inhibition of cell viability, respectively, by the drug was calculated using GraphPad Prism 5.0. Statistical comparisons among IC50 values were performed by the analysis of variance (ANOVA) followed by the Tukey test, and differences were considered statistically significant at p ≤ 0.05.

HepG2 cells [6] = assay: NRU assay (lysosomal activity), HepG2; assay type: cell-based, human
Description: as §5, §6
(§9) NRU assay. This method is based on staining living cells with neutral red which readily diffuses through the plasma membrane and accumulates in lysosomes. After the incubation, the medium containing the drug was removed, and the cells were washed with PBS. Then, 100 μL/well of NR solution (50 μg/mL) was added for 3 h. After this time, the cells were washed with PBS. The dye from viable cells was released by extraction with a mixture of acetic acid, ethanol, and water (1:50:49, v:v:v). After 10 min of shaking, the absorbance of the dissolved NR was measured using a Synergy HTX multi-mode reader (BioTek® Instruments Inc., Winooski, VT, USA) at 540 nm using a blank as a reference. Cytotoxicity was expressed as a percentage of the negative control (0.1% DMSO).
as §8

HepG2 cells [7] = assay: TPC assay (total protein content), HepG2; assay type: cell-based, human
Description: as §5, §6
(§10) TPC assay. The assay was based upon staining total cellular protein (proliferation). After the incubation, the medium containing drug was removed and 100 μL of Coomassie brilliant blue R-250 dye was added to each well. The plate was shaken for 10 min. Then, the stain was removed and the cells were rinsed twice with 100 μL of washing solution (glacial acetic acid/ethanol/water, 5:10:85, v:v:v). After that, 100 μL of the desorbing solution (1 M potassium acetate) was added, and plates were shaken again for 10 min. The absorbance was measured at 595 nm in a microplate reader (Synergy HTX multi-mode reader (BioTek® Instruments Inc., Winooski, VT, USA)) using a blank as a reference. Cytotoxicity was expressed as a percentage of the negative control (0.1% DMSO).
as §8

HepG2 cells [8] = assay: LDH leakage assay (cellular membrane integrity), HepG2; assay type: cell-based, human
Description: as §5, §6
LDH leakage assay. The integrity of the plasma membrane was assessed through the test of lactate dehydrogenase (LDH) release, which was monitored using the commercially available Cytotoxicity Detection Kit (LDH) (Roche Diagnostics, Warsaw, Poland). The medium (100 μL/well) without cells was transferred into the corresponding wells of an optically clear 96-well flat-bottom microplate, and 100 μL of reaction mixture was added to each well. Then, the plates were incubated for 30 min at room temperature in darkness. After that time, 50 μL/well of 1 M HCl was added to stop the reaction. The absorbance was measured at 492 nm in a microplate reader (Synergy HTX multi-mode reader (BioTek® Instruments Inc., Winooski, VT, USA)) using a blank as a reference. […]

Balb/c 3T3 fibroblasts [9] = assay: MTT assay (mitochondrial activity), Balb/c 3T3; assay type: cell-based, murine
Description: as §5, §6, §7, §8

Balb/c 3T3 fibroblasts [10] = assay: NRU assay (lysosomal activity), Balb/c 3T3; assay type: cell-based, murine
Description: as §5, §6, §9, §8

Balb/c 3T3 fibroblasts [11] = assay: TPC assay (total protein content), Balb/c 3T3; assay type: cell-based, murine
Description: as §5, §6, §10, §8

Balb/c 3T3 fibroblasts [12] = assay: LDH leakage assay (cellular membrane integrity), Balb/c 3T3; assay type: cell-based, murine
Description: as §5, §6
LDH leakage assay. The integrity of the plasma membrane was assessed through the test of lactate dehydrogenase (LDH) release, which was monitored using the commercially available Cytotoxicity Detection Kit (LDH) (Roche Diagnostics, Warsaw, Poland). The medium (100 μL/well) without cells was transferred into the corresponding wells of an optically clear 96-well flat-bottom microplate, and 100 μL of reaction mixture was added to each well. Then, the plates were incubated for 30 min at room temperature in darkness. After that time, 50 μL/well of 1 M HCl was added to stop the reaction. The absorbance was measured at 492 nm in a microplate reader (Synergy HTX multi-mode reader (BioTek® Instruments Inc., Winooski, VT, USA)) using a blank as a reference.
as §8

[13] = HepG2, MTT, 72 h exposure, mean (n = 3) ± SD
[14] = HepG2, NRU, 72 h exposure, mean (n = 3) ± SD
[15] = HepG2, TPC, 72 h exposure, mean (n = 3) ± SD
[16] = Balb/c 3T3, MTT, 72 h exposure, mean (n = 3) ± SD
[17] = Balb/c 3T3, NRU, 72 h exposure, mean (n = 3) ± SD
[18] = Balb/c 3T3, TPC, 72 h exposure, mean (n = 3) ± SD
[19] = Balb/c 3T3, LDH, 72 h exposure, mean (n = 3) ± SD

## Clc1ccc(COC(Cn2ccnc2)c2ccc(Cl)cc2Cl)c(Cl)c1 (stereo not shown) [Miconazole, 1-[2-(2,4-dichlorobenzyloxy)-2-(2,4-dichlorophenyl)ethyl]-1H-imidazole]
HepG2 cells [1]
  toxicity to the cell line (in words): not toxic
Balb/c 3T3 fibroblasts [2]
  toxicity to the cell line (in words): not toxic
[3]; ethanol
  solubility: soluble
[3]; methanol
  solubility: hardly soluble
[3]; water
  solubility: practically insoluble
[4]
  concentration inhibiting the proliferation of human cancer cells: ≤ 10 µM

## N.N.[Cl][Pt][Cl] [Cisplatin, cis-diamminedichloroplatinum(II)]
HepG2 cells [5]; [13]
  IC20: < 0.1 nM
  IC50: > 1000 nM
HepG2 cells [6]; [14]
  IC20: < 0.1 nM
  IC50: > 1000 nM
HepG2 cells [7]; [15]
  IC20: < 0.1 nM
  IC50: > 1000 nM
HepG2 cells [8]; HepG2, LDH, 72 h exposure, mean (n = 3) ± SD
  IC50: 10 ± 1 nM
Balb/c 3T3 fibroblasts [9]; [16]
  IC20: > 1000 nM
  IC50: > 1000 nM
Balb/c 3T3 fibroblasts [10]; [17]
  IC20: > 1000 nM
  IC50: > 1000 nM
Balb/c 3T3 fibroblasts [11]; [18]
  IC20: > 1000 nM
  IC50: > 1000 nM
Balb/c 3T3 fibroblasts [12]; [19]
  IC20: > 1000 nM
  IC50: > 1000 nM

## O=[N+]([O-])[O-].[Ag+] [AgNO3, Silver nitrate]
HepG2 cells [5]
  IC20: > 1000 nM
  IC50: > 1000 nM
HepG2 cells [6]
  IC20: > 1000 nM
  IC50: > 1000 nM
HepG2 cells [7]
  IC20: > 1000 nM
  IC50: > 1000 nM
HepG2 cells [8]
  IC20: > 1000 nM
  IC50: > 1000 nM
Balb/c 3T3 fibroblasts [9]
  IC20: > 1000 nM
  IC50: > 1000 nM
Balb/c 3T3 fibroblasts [10]
  IC20: > 1000 nM
  IC50: > 1000 nM
Balb/c 3T3 fibroblasts [11]
  IC20: > 1000 nM
  IC50: > 1000 nM
Balb/c 3T3 fibroblasts [12]
  IC20: > 1000 nM
  IC50: > 1000 nM
